From US9914722B2, “Compounds for treating spinal muscular atrophy” (PTC Therapeutics Inc., priority 2012, dated 2018)
“Also recorded” adds a separate entry of the source.

Legend:
[1] = tested on: human SMN1 minigene full length and Δ7 mRNA (SMN1-A minigene); experiment: Human SMN1 minigene mRNA end-point semi-quantitative RT-PCR splicing assay in cultured cells; type: cell-based; conditions: HEK293H cells transfected with SMN1-A minigene, 7 hour, increasing concentrations, FIG. 8
Excerpt: Human SMN1 Minigene mRNA End-Point Semi-Quantitative RT-PCR Splicing Assay in Cultured Cells
The RT-PCR assay is used to visualize and quantify the levels of the human SMN1 minigene full length and Δ7 mRNA in primary cells and cell lines expressing the human SMN1 minigene construct treated with a test compound.
Using the procedure for the preparation of the SMN2 minigene construct described in Biological Example 1, the SMN1 version of the minigene is generated by replacing the sixth nucleotide of exon 7 (a thymine residue) of the SMN2-A minigene construct to cytosine using site-directed mutagenesis. Thus, similar to the SMN2-A minigene construct, the SMN1 minigene construct has a single adenine residue inserted after nucleic residue 48 of exon 7. The SMN1 minigene construct is referred to as SMN1-A.
Protocol. HEK293H cells (10,000 cells/well/199 μL) were transfected, using FuGENE-6 reagent, in a 96-well plate with 15 ng of the SMN1-A minigene reporter plasmid per well. Cells were incubated for 24 hours following transfection. Test compounds were serially diluted 3.16-fold in 100% DMSO to generate a 7-point concentration curve. A solution of test compound (1 μL, 200× in DMSO) was added to each test well. 1 μL DMSO was added to each control well. The plate was incubated for 7 hours in a cell culture incubator (37° C., 5% CO2, 100% relative humidity). The cells were then lysed in Cells-To-Ct lysis buffer and the lysates were stored at −80° C.
Two SMN spliced mRNA are generated from the SMN1 minigene. The term “SMN1 minigene FL” refers to the first spliced product containing exon 7, corresponding to full length SMN1 mRNA. The term “SMN1 minigene Δ7” refers to the second product lacking exon 7.
SMN1 minigene FL and SMN1 minigene Δ7 mRNA are amplified using the primers in Table 11. Primer SMN Forward C (SEQ ID NO. 11) hybridizes to a nucleotide sequence in exon 6 (nucleotide 43 to nucleotide 63), primer SMN Reverse A (SEQ ID NO. 2) hybridizes to a nucleotide sequence in the coding sequence of Firefly luciferase. The combination of these two oligonucleotides detects only SMN1 or SMN2 minigenes (RT-PCR) and will not detect endogenous SMN1 or SMN2 genes. Since the HEK293H cells used in Example 16 were transfected with only the human SMN1 minigene, RT-PCR can visualize and quantify only SMN1 minigene FL and SMN1 minigene Δ7 mRNA.
To synthesize cDNA, 5 μL of lysate, 4 μL of 5× iScript reaction mix, 1 μL of reverse transcriptase, and 10 μL of water are combined and incubated 5 min at 25° C. followed by 30 min at 42° C., followed by 5 min at 85° C. The cDNA solution is stored at −20° C.
To perform endpoint PCR, 5 μL of cDNA, 0.2 μL of 100 μM forward primer, 0.2 μL of 100 μM reverse primer, and 22.5 μL of polymerase super mix are combined in a 96 well semiskirted PCR plate. […]

Row | melting point [°C] | SMILES | SMN1 minigene FL mRNA (gel band) [1] | SMN1 minigene Δ7 mRNA (gel band) [1]
1 | 208 to 210 | C[C@@H]1CN(c2ccc3oc(-c4cn5ccccc5n4)cc(=O)c3c2)C[C@H](C)N1 [Cpd 17, 6-[(3R,5S)-3,5-dimethylpiperazin-1-yl]-2-(imidazo[1,2-a]pyridin-2-yl)-4H-chromen-4-one] | progressively more SMN1 minigene FL mRNA; also recorded: dose dependent increase in SMN1 minigene full-length mRNA | less SMN1 minigene Δ7 mRNA; also recorded: dose dependent decrease in SMN1 minigene Δ7 mRNA
2 | 100 to 102 | COc1ccc(-c2cc(=O)c3cc(N4CCN[C@@H](C)C4)ccc3o2)cc1F [Cpd 38, 2-(3-fluoro-4-methoxyphenyl)-6-[(3S)-3-methylpiperazin-1-yl]-4H-chromen-4-one] | progressively more SMN1 minigene FL mRNA; also recorded: dose dependent increase in SMN1 minigene full-length mRNA | less SMN1 minigene Δ7 mRNA; also recorded: dose dependent decrease in SMN1 minigene Δ7 mRNA
